Data reported in US20240279202A1 (NURIX THERAPEUTICS, INC., priority 2021, published 2024).
Values belong to the compound of their own block, whether it stands above or below them.

Molecular target: T1, ITK (Mus musculus, UniProt Q03526)
T1 construct: mice were sacrificed and splenocytes were isolated and used to prepare protein lysates; from tissue; host or cells: mouse splenocytes (spleen) after oral dosing
T1 sequence (Q03526 1-625): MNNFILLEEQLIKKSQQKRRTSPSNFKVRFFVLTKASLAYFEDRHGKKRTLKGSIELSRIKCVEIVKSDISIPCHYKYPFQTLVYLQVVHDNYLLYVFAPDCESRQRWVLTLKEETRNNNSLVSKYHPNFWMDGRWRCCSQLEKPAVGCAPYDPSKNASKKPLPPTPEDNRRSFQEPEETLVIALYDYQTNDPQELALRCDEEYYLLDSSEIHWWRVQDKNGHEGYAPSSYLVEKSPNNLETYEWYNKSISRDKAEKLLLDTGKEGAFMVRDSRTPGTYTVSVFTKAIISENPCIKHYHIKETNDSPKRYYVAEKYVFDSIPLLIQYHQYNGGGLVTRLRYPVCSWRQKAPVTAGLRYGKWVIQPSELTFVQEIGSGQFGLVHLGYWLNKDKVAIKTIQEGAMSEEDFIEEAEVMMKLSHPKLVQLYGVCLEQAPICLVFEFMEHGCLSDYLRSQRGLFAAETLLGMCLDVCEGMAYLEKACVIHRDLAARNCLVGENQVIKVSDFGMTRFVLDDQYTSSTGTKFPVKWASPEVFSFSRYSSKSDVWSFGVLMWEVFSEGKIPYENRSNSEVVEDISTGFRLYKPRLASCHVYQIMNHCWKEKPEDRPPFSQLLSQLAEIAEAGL
Assay: Mouse PD assay for ITK degradation (Western blot, splenocytes after oral administration)
Type: in vivo
Conditions: for ITK (%) 90 mpk PO, 6 h: percent ITK remaining in mouse splenocytes relative to vehicle; for ITK degradation in vivo at 6 hours (FIG. 2): 90 mg/kg PO
Protocol: Compounds 1, 3, 7, and 42 were formulated and administered at 90 mg/kg to mice by oral gavage (PO). Blood was collected at defined time points (after 1, 2, and 6 hours) after compounds administration to determine PK parameters. Concentration increased through 6 hours. Six hours later mice were sacrificed and splenocytes were isolated and used to prepare protein lysates. Total protein levels were determined in the lysates using the BCA assay according to standard methods. Equal amounts of protein were then analyzed by Western blot to determine the level of ITK expression in each sample. ITK band intensities were measured using Alpha View software and the percent of ITK remaining in each test animal was determined relative to the mean of ITK levels in vehicle control samples.
After 6 hours, splenocytes cells were harvested. ITK was evaluated by Western blotting.
Compounds 43, 4, 5, 10, 11, 12, 44, 14, 3, and 13 were administered to mice orally. After 6 hours, splenocytes cells were harvested. ITK was evaluated by Western blotting. Media was removed and cell pellets were lysed in 100 uL lysis buffer (RIPA buffer (Fisher, PI89901), cOmplete Mini EDTA-free protease inhibitor (Sigma 11836170001), Protease Inhibitor Cocktail (Sigma, P2714), Phosphatase Inhibitor Cocktail 2 and 3 (Sigma, P5726 and P0044), Benzonase (Sigma, E1014)). Cells were lysed overnight at −20° C. Following thaw, cells were centrifuged for 10 min at 13000 rpm, then transferred to new tube. Protein levels were determined by BCA Assay performed according to manufacturer's protocol (EMID Millipore, cat. no. 71285-3). Samples were combined with (4×) LDS Sample Buffer and (10×) Reducing Agent and H2O to equally load 20 ug protein per lane of a 26-well NuPAGE 4-12% Bis-Tris protein gel (1.0 mm, Thermo cat. no. NP0326). Samples were separated by running gels at constant 150 V in NuPAGE MES SDS Running Buffer. Following electrophoresis, proteins were transferred to nitrocellulose membranes using an iBlot Gel Transfer Device and iBlot Gel Transfer Stacks (Thermo cat. no. IB21001 and IB301001) and transfer method P3 (20V for 7 min). Membranes were blocked for 1 hr in 5% milk solution (TBS (0.2% Tween-20)). Following blocking, membranes were incubated with primary antibody (1:1000 CST ITK (2F12) #2380) overnight at 4° C. with gentle shaking. Blots were washed 2× in TBS (0.2% Tween-20), 30 min per wash. Following washes, blots were incubated in secondary HRP-conjugated antibody (Promega anti-Mouse IgG (H+L) HRP cat. no. W4021), 1:5000 in 5% milk solution (TBS (0.2% Tween-20)), for 1 hr at room temperature with gentle shaking. Blots were washed 2× in TBS (0.2% Tween-20), 30 min per wash. Blots were incubated with 1:1 mix of ECL reagents 1 & 2 (Amersham ECL Western Blotting Detection Reagent, cat. no. RPN2106) for 2 min at room temperature. Bands were visualized using a Protein Simple imager. Blots were then re-probed with a combination of anti-actin antibody (Sigma Monoclonal Mouse Anti-3-Actin (clone AC-15), cat. no. A5441) and secondary H1RP-conjugated antibody (Promega anti-Mouse IgG (H+L) HRP, cat. no. W4021) and similar steps were taken for incubation, wash, detection and visualization steps as above. The data was analyzed using Alpha View software. The densitometric reading for each sample band was normalized to that of the corresponding actin band per lane. Approximate % ITK remaining per sample was calculated as follows: […]
Once % ITK remaining has been calculated for each sample, groups are averaged together to show an means % ITK normalized to actin and relative to control.
Compounds 16, 17, and 18 were administered to mice orally. After 6 hours or 24 hours, splenocytes cells were harvested. ITK was evaluated by Western blotting. Plasma concentrations were determined by LC/MS/MS. Plasma samples were protein precipitated by addition of 100 μl of acetonitrile containing 50 ng/ml of internal standard. The resulting mixture was vortexed and centrifuged at 4000 RPM for 5 minutes. […]

[1] = mice, splenocytes, Western blot
[2] = mice, oral, splenocytes, Western blot

ITK (%) 90 mpk PO, 6 h (90 mg/kg): 190%
Structure (SMILES): CN(C(=O)CC[C@H]1CCN(c2ccc3c(c2)C(=O)N(C2CCC(=O)NC2=O)C3=O)C1)c1ccc2cc(-c3n[nH]c4c3C[C@@H]3C(F)(F)[C@]3(C)C4)[nH]c2c1 (stereo in doubt) [Compound 67, N-(2-((4aS,5aR)-5,5-difluoro-5a-methyl-1,4,4a,5,5a,6-hexahydrocyclopropafindazol-3-yl)-1H-indol-6-yl)-3-((3R)-1-(2-(2,6-dioxopiperidin-3-yl)-1,3-dioxoisoindolin-5-yl)pyrrolidin-3-yl)-N-methylpropanamide]

ITK (%) 90 mpk PO, 6 h (90 mg/kg): 240%
Structure (SMILES): CN(C(=O)CC[C@H]1CCN(c2ccc3c(c2)C(=O)N(C2CCC(=O)NC2=O)C3=O)C1)c1ccc2cc(-c3n[nH]c4c3C[C@@H]3C(F)(F)[C@]3(C)C4)[nH]c2c1 (stereo in doubt) [Compound 68]

The remaining lines, values behind:

Structure (SMILES): CN(c1ccc2cc(-c3n[nH]c4c3C[C@@H]3C(F)(F)[C@]3(C)C4)[nH]c2c1)C(=O)[C@H]1C[C@]2(CCN(c3ccc4c(c3)C(=O)N([C@H]3CCC(=O)NC3=O)C4=O)C2)C1 (racemic) [Compound 71b, (2s,4s)-N-[2-[(4aS,5aR)-5,5-difluoro-5a-methyl-1H,4H,4aH,6H-cyclopropa[f]indazol-3-yl]-1H-indol-6-yl]-6-[2-[(3RS)-2,6-dioxopiperidin-3-yl]-1,3-dioxoisoindol-5-yl]-N-methyl-6-azaspiro[3.4]octane-2-carboxamide]
ITK (%) 90 mpk PO, 6 h: 30%

Structure (SMILES): CN(C(=O)CCC1CCN(c2ccc3c(c2)C(=O)N(C2CCC(=O)NC2=O)C3=O)C1)c1ccc2cc(-c3n[nH]c4c3CCC(C)(C)C4)[nH]c2c1 (stereo not drawn) [Compound 1, N-(2-(6,6-dimethyl-4,5,6,7-tetrahydro-1H-indazol-3-yl)-1H-indol-6-yl)-3-(1-(2-(2,6-dioxopiperidin-3-yl)-1,3-dioxoisoindolin-5-yl)pyrrolidin-3-yl)-N-methylpropanamide]
ITK degradation in vivo at 6 hours (FIG. 2) [1]: degraded ITK in vivo
ITK (%) 90 mpk PO, 6 h: 153%

Structure (SMILES): CN(C(=O)CCN1CCN(c2ccc3c(c2)C(=O)N(C2CCC(=O)NC2=O)C3=O)CC1)c1ccc2cc(-c3n[nH]c4c3CCC(C)(C)C4)[nH]c2c1 (stereo not drawn) [Compound 2, N-(2-(6,6-dimethyl-4,5,6,7-tetrahydro-1H-indazol-3-yl)-1H-indol-6-yl)-3-(4-(2-(2,6-dioxopiperidin-3-yl)-1,3-dioxoisoindolin-5-yl)piperazin-1-yl)-N-methylpropanamide]
ITK (%) 90 mpk PO, 6 h: 49.3%

Structure (SMILES): C[C@@H](C(=O)N(C)c1ccc2cc(-c3n[nH]c4c3CCC(C)(C)C4)[nH]c2c1)N1CCN(CC2CCN(c3cccc4c3n(C)c(=O)n4C3CCC(=O)NC3=O)CC2)CC1 (stereo partly drawn) [Compound 3, (2S)—N-(2-(6,6-dimethyl-4,5,6,7-tetrahydro-1H-indazol-3-yl)-1H-indol-6-yl)-2-(4-((1-(1-(2,6-dioxopiperidin-3-yl)-3-methyl-2-oxo-2,3-dihydro-1H-benzo[d]imidazol-4-yl)piperidin-4-yl)methyl)piperazin-1-yl)-N-methylpropanamide]
ITK degradation in vivo at 6 hours (FIG. 2) [1]: degraded ITK in vivo
ITK degradation in vivo at 6 hours (FIG. 3A, FIG. 4A) [2]: degraded ITK in vivo
ITK degradation in vivo at 24 hours (FIG. 3A, FIG. 4A) (mice, oral, splenocytes, Western blot, 24 hours): degraded ITK in vivo
ITK (%) 90 mpk PO, 6 h: 24%

Structure (SMILES): C[C@@H](C(=O)N(C)c1ccc2cc(-c3n[nH]c4c3CCC(C)(C)C4)[nH]c2c1)N1CCN(C[C@@H]2CCN(c3ccc4c(c3)n(C)c(=O)n4C3CCC(=O)NC3=O)C2)CC1 (stereo partly drawn) [Compound 4, (2S)—N-(2-(6,6-dimethyl-4,5,6,7-tetrahydro-1H-indazol-3-yl)-1H-indol-6-yl)-2-(4-(((3S)-1-(1-(2,6-dioxopiperidin-3-yl)-3-methyl-2-oxo-2,3-dihydro-1H-benzo[d]imidazol-5-yl)pyrrolidin-3-yl)methyl)piperazin-1-yl)-N-methylpropanamide]
ITK degradation in vivo at 6 hours (FIG. 3A, FIG. 4A) [2]: degraded ITK in vivo
ITK (%) 90 mpk PO, 6 h: 75%
